Measured values published in patent EP0151577B1 (priority 1983, dated 1984).

Tests used:
Tension sanguine = assay: Cardiovascular activity: blood pressure; type: in vivo
Excerpt: (§1) Le protocole experimental était celui décrit dans "Sugar Derivatives of Indolamines. part V: Cardiovascular Effects and "Anti-stress" Activity of Desoxyfructose Derivative of Serotonin and 5-Metho-xy- tryptamin", L. Mester, M. Mester, K.P. Bhargava, C. Labrid, G. Dureng and M. Cheucle, THROMBOSIS […], 15,245,1979.

souris [1] = assay: Vertical pole climbing test; type: in vivo; settings: 100 mg/kg i.p., 15 min after administration
souris [2] = assay: Pentobarbital sleeping time; type: in vivo
Protocol: (§4) Les mesures ont été faites a 15, 30 et 60 minutes après I'administration par voie intrapéritonéale (i.p.) a des souris.

souris [3] = assay: Anticonvulsant activity, pentylenetetrazol; type: in vivo; settings: 100 mg/kg i.p., 15 min after administration
[4] = test system: réponse à l'obstruction de la carotide; assay: Cardiovascular activity: response to carotid occlusion (CO); type: in vivo
Excerpt: as §1

souris [5] = assay: General pharmacological profile: hypersensitivity to noise; settings: 100 mg/kg i.p., 15 min after administration, Tableau 3
Protocol: as §4

souris [6] = assay: General pharmacological profile: spontaneous motor activity; type: in vivo
Excerpt: (§2) Activite motrice spontanée: MODIGH, K., Central and peripheral effects of 5-hydroxytryptophan on motor activity in mice. Psychopharmacologia (Berlin), 23, 48, 1972. Cadence respiratoire: […], S., and VALZELLI, L. Serotonin and cardiovascular system, Chapter 9, in "Serotonin", Elsevier Publ. Co. Amsterdam 1965.

souris [7] = assay: Tremor score in mice pretreated with a MAO inhibitor (Harmaline); type: in vivo; settings: 75 mg/kg S.C., 1 h after Harmaline 25 mg/kg P.O., 5 souris, scored 5 to 75 min
Protocol: Les conditions expérimentales étaient les suivantes:
Chez des souris prétraitées par un inhibiteur de la MAO (Harmaline 25 mg/kg/ P.O.), I'injection de 5HTP (1 heure après l'IMAO) entraîne l'apparition de tremblements plus ou moins généralisés, accompagnés ou non d'hyperactivité motrice et qui sont dus a I'accumulation de sérotonine non dégradée au niveau des récepteurs post-synaptiques cérébraux. On peut établir pour chaque souris une cotation chiffrée suivant l'intensité des symptômes observes au cours du temps (cotation toutes les 5 min. entre la 5ème et la 45ème min. après I'injection de 5 HTP puis toutes les 15 min. jusqu'à la 75ème min.).
On additionne en une score total tous les chiffres obtenus aux différents temps sur des lots de 5 ou 10 souris.
Les actions du 5 HTP ont été comparées a celles du DF-5HTP.

souris [8] = assay: Anticonvulsant activity, MES; type: in vivo; settings: for Activité anticonvulsivante 1. MES: 100 mg/kg i.p., 15 min after administration, Tableau 3
Excerpt: Activite anticonvulsivante (MES): % de protection Temps de sommeil au pentobarbital: WYATT, R.J., ZARKONE, V. […], K., DEMENT, W.C., SMYDER, F. and SJOERDSMA, A., Effects of 5-Hydroxytryptophan on the sleep of normal human subjects. Electroencephaly and Clinical Neurophysiology 30, 5051971.

souris [9] = assay: General pharmacological profile: defecation; settings: 100 mg/kg i.p., 15 min after administration, Tableau 3
Protocol: as §4

souris [10] = assay: Rotarod test; settings: 100 mg/kg i.p.; témoin 11,3 ± 3,1
Protocol: as §4

Rythme cardiaque = assay: Cardiovascular activity: heart rate; type: in vivo
Excerpt: as §1

souris [11] = assay: Anti-stress activity: swimming endurance; type: in vivo; settings: 100 mg/kg i.p., souris observed up to 540 min; témoins 385 ± 31 min
Protocol: Au tableau 4, la lettre N designe le nombre d'animaux (souris). Un astérisque indique une activite importante. Deux astérisques indiquent une possibilité d'activité positive. Dans I'essai d'endurance a la nage, on a observe les souris jusqu'à 540 minutes, la durée moyenne de nage pour les souris témoins étant de 385 ± 31 minutes.
(N) - représente le nombre d'animaux * - activité importante ** - activite positive possible Pour I'endurance a la nage, les souris ont été observées jusqu'à 540 min, la durée moyenne de nage chez les souris témoins était de 385 + 31 min. *** - La leucocytose a été induite par 0,1 ml de lait (sous-cutanée) avant traitement avec le medicament.

souris [12] = assay: Catatonia; settings: 100 mg/kg i.p., 15 min after administration
souris [13] = assay: General pharmacological profile: respiratory rate; type: in vivo; settings: for Cadence respira-toire: souris; for Cadence respiratoire: 100 mg/kg i.p., 15 min after administration, Tableau 3
Excerpt: as §2
COHEN, Y. and BLANCHARD, P. Influence de la chelation du calcium sur les effets tensionnels de la sérotonine chez le chien. J. Physiol., 52, 569,1960.
BRAUNWALD, E. Control of myocardial oxygen consumption: Physiologic and clinical considerations. Am. J. Cardiol., 27 (4), 416,1971.

[14] = Acute toxicity, DL50 i.p.; type: in vivo, souris; settings: mouse, in vivo, ip, read-out: DL50 (ip)en toxicité aigue
Protocol: (§3) La valeur DL50 i.p. pour tous ces derives a été trouvée voisine de 800 mg/kg et la valeur DL 50 i.v. est supérieure a 5 g/kg.

souris [15] = assay: Inclined screen test (neurotoxicity); settings: 100 mg/kg i.p., 15 min after administration, Tableau 3
Protocol: as §4

souris [16] = assay: Morphine test (antagonism); type: in vivo; settings: 100 mg/kg i.p., 15 min after administration
[17] = test system: 5-HT (dans tout le cerveau); assay: Amount of serotonin (5-HT) in whole brain, spectrophotofluorometric; type: in vivo, souris; settings: 160 mg/kg i.p., 15 min.; Solution Saline 60,0; mean of 4 souris
Excerpt: Les quantités de sérotonine ont été estimees par une méthode spectrophotofluorométrique, telle que décrite par Solomon et al. Biochem. Pharmacology 14, 831 (1965). Les résultats de ces essais sont rassemblés dans le Tableau 10 ci-après.
• * Chaque valeur représente la moyenne de quatre animaux d'experience (souris) • ** La concentration de 5-HT est exprimée par gramme de tissu frais (cerveau).

souris [18] = assay: Motor activity (Photactametre); type: in vivo; settings: 100 mg/kg i.p., compared with 5HTP used as control
souris [19] = assay: Acute toxicity, DL50 i.p.; type: in vivo
Protocol: as §3

[20] = 10 mg par voie cérébroventriculaire
[21] = 100 mg/kg (ip), 15 min, Tableau 2
[22] = 100 mg/kg i.p., 15 min after administration, Tableau 3

N[C@@H](Cc1c[nH]c2ccc(O)cc12)C(=O)O [5-HTP, 5-hydroxytryptophane, reference compound]
Tension sanguine Durée (Tension sanguine; [20]): 240 min | Tension sanguine Mesure à (Tension sanguine; [20]): 1 min | Tension sanguine Pic (Tension sanguine; [20]): 15 min | Tension sanguine Durée (Tension sanguine; 100 mg par voie intraveineuse): 60 min | Tension sanguine Mesure à (Tension sanguine; 100 mg par voie intraveineuse): 1 min | Tension sanguine Pic (Tension sanguine; 100 mg par voie intraveineuse): 10 min | Essai de grimpé sur un baton vertical (souris [1]): Sans effet | Temps de sommeil au pentobarbital % du témoin (témoin =100) (souris [2]; 50 mg/kg (ip), 15 min): 285 % du témoin | Temps de sommeil au pentobarbital % du témoin (témoin =100) (souris [2]; 50 mg/kg (ip), 30 min): 222 % du témoin | Temps de sommeil au pentobarbital % du témoin (témoin =100) (souris [2]; 50 mg/kg (ip), 60 min): 136 % du témoin | Temps de sommeil au pentobarbital % du témoin (témoin =100) (souris [2]; [21]): 295 % du témoin | Temps de sommeil au pentobarbital % du témoin (témoin =100) (souris [2]; 100 mg/kg (ip), 30 min): 276 % du témoin | Temps de sommeil au pentobarbital % du témoin (témoin =100) (souris [2]; 100 mg/kg (ip), 60 min): 279 % du témoin | Activité anticonvulsivante 2.Pentylènetetrazol (souris [3]): 0% | REPONSE CO Durée [4, 20]: 105 min | REPONSE CO Mesure à [4, 20]: 1 min | REPONSE CO Pic [4, 20]: 10 min | REPONSE CO Durée ([4]; 100 mg par voie intraveineuse): 45 min | REPONSE CO Mesure à ([4]; 100 mg par voie intraveineuse): 5 min | REPONSE CO Pic ([4]; 100 mg par voie intraveineuse): 15 min | Hypersensibilité au bruit (souris [5]): oui | Activité motrice spontanée (souris [6]; 50 mg/kg (ip), souris): sans effet | Activité motrice spontanée (souris [6]; 100 mg/kg (ip), souris, Tableau 2): d'abord légère augmentation et ensuite dimi-nution légère | Activité motrice spontanée (souris [6]; [22]): Légère augmentation | Score total (tremblements) (souris [7]): 146 | Activité anticon-vulsivante MES % protection (souris [8]; 50 mg/kg (ip), 15 min): 20% | Activité anticon-vulsivante MES % protection (souris [8]; 50 mg/kg (ip), 30 min): 25% | Activité anticon-vulsivante MES % protection (souris [8]; 50 mg/kg (ip), 60 min): 25% | Activité anticon-vulsivante MES % protection (souris [8]; [21]): 50% | Activité anticon-vulsivante MES % protection (souris [8]; 100 mg/kg (ip), 30 min): 33,3% | Activité anticonvulsivante 1. MES (souris [8]): 60% | Défécation (souris [9]): oui | Performance à l'essai Rotarod Moyenne (Sec) (souris [10]): 66,2 ± 6,4 (30) Sec | Rythme cardiaque Durée (min) (Rythme cardiaque; [20]): non mani-fes-tae jus-qu'à 240 | Rythme cardiaque Mesure à (Rythme cardiaque; [20]): 5 min | Rythme cardiaque Pic (Rythme cardiaque; [20]): 30 min | Rythme cardiaque Durée (Rythme cardiaque; 100 mg par voie intraveineuse): 60 min | Rythme cardiaque Mesure à (Rythme cardiaque; 100 mg par voie intraveineuse): 1 min | Rythme cardiaque Pic (Rythme cardiaque; 100 mg par voie intraveineuse): 30 min | Endurance à la nage % d'augmentation (souris [11]): 40^** % | Catatonie (souris [12]): non | Cadence respira-toire (souris [13]; 50 mg/kg (ip)): sans effet | Cadence respira-toire (souris [13]; 100 mg/kg (ip), Tableau 2): augmentation | Cadence respiratoire (souris [13]): Légère augmentation | LD50 [14]: > 800 mg/kg | Tamis incliné (souris [15]): Pas d'effet neurotoxique | Essai à la morphine (souris [16]): Négatif (pas d'antagonisme)

désoxyribulo-5-hydroxytryptophane [Désoxy ribulo-5HTP]
Essai de grimpé sur un baton vertical (souris [1]): Sans effet | Temps de sommeil au pentobarbital % du témoin (Témoin à 100) (souris [2]; [22]): 309,2 % du témoin | Activité anticonvulsivante 2.Pentylènetetrazol (souris [3]): 0% | Activité motrice spontanée (souris [6]; [22]): sans effet | Activité anticonvulsivante 1. MES (souris [8]): 20% | Quantités de 5-HT (dans tout le cerveau) [17]: 92,5 | Cadence respiratoire (souris [13]): sans effet | Activité motrice (Photactametre) (souris [18]): Augmentation pendant les 40 premières min. et ensuite diminution | DL50 (ip)en toxicité aigue (souris [19]): > 800 mg/kg | Essai à la morphine (souris [16]): Négatif (pas d'antagonisme)
